Tests used:
Assay type in all cases: cell-based
E. coli DH5α = assay: Antibacterial activity: MIC and growth curve against E. coli DH5α in 96-well plate; settings: minimal inhibitory concentration against E. coli DH5α; 96-well plate, 5×10^5 CFU/mL, 37° C., judged after 8 h
In short: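 Log-phase DH5α (OD600 about 0.5, 37° C, 185 rpm in LB) was pelleted, resuspended in fresh LB and seeded at 5×10^5 CFU/mL with recombinant protein at 50, 25 and 12.5 μg/mL (two-fold series), in triplicate. Plates were shaken at 175 rpm, 37° C, and OD600 was read every 30 min. MIC was the lowest concentration with no growth.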

E. coli BL21 = assay: MIC against Gram-negative bacteria: E. coli BL21; settings: 10 h cultivation at 37° C., 5×10^5 CFU/mL, two-fold serial dilution
In short: (§1)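 Two-fold serial dilutions of each purified human EGF domain protein, three replicate wells per level, were combined with bacteria at a final 5×10^5 CFU/mL in LB. Cultures were shaken at 175 rpm, 37° C. The MIC was taken as the minimum concentration preventing growth.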

Pseudomonas aeruginosa = assay: MIC against Gram-negative bacteria: Pseudomonas aeruginosa; settings: 10 h cultivation at 37° C., 5×10^5 CFU/mL, two-fold serial dilution
In short: as §1

Klebsiella pneumonia = assay: MIC against Gram-negative bacteria: Klebsiella pneumonia; settings: 10 h cultivation at 37° C., 5×10^5 CFU/mL, two-fold serial dilution
In short: as §1

Enterobacter cloacae = assay: MIC against Gram-negative bacteria: Enterobacter cloacae; settings: 10 h cultivation at 37° C., 5×10^5 CFU/mL, two-fold serial dilution
In short: as §1

Aeromonas hydrophila = assay: MIC against Gram-negative bacteria: Aeromonas hydrophila; settings: 10 h cultivation at 37° C., 5×10^5 CFU/mL, two-fold serial dilution
In short: as §1

Citrobacter diversus = assay: MIC against Gram-negative bacteria: Citrobacter diversus; settings: 10 h cultivation at 37° C., 5×10^5 CFU/mL, two-fold serial dilution
In short: as §1

Moraxella catarrhalis = assay: MIC against Gram-negative bacteria: Moraxella catarrhalis; settings: 10 h cultivation at 37° C., 5×10^5 CFU/mL, two-fold serial dilution
In short: as §1

Proteus mirabilis = assay: MIC against Gram-negative bacteria: Proteus mirabilis; settings: 10 h cultivation at 37° C., 5×10^5 CFU/mL, two-fold serial dilution
In short: as §1

Proteus vulgaris = assay: MIC against Gram-negative bacteria: Proteus vulgaris; settings: 10 h cultivation at 37° C., 5×10^5 CFU/mL, two-fold serial dilution
In short: as §1

Serratia marcescens = assay: MIC against Gram-negative bacteria: Serratia marcescens; settings: 10 h cultivation at 37° C., 5×10^5 CFU/mL, two-fold serial dilution
In short: as §1

| Substance | MIC (E. coli DH5α) [µg/mL] | MIC E. coli BL21 (E. coli BL21) [µg/mL] | MIC P. aeruginosa (Pseudomonas aeruginosa) [µg/mL] | MIC K. pneumonia (Klebsiella pneumonia) [µg/mL] | MIC E. cloacae (Enterobacter cloacae) [µg/mL] | MIC A. hydrophila (Aeromonas hydrophila) [µg/mL] | MIC C. diversus (Citrobacter diversus) [µg/mL] | MIC M. catarrhalis (Moraxella catarrhalis) [µg/mL] | MIC P. mirabilis (Proteus mirabilis) [µg/mL] | MIC P. vulgaris (Proteus vulgaris) [µg/mL] | MIC S. marcescens (Serratia marcescens) [µg/mL] |
| --- | --- | --- | --- | --- | --- | --- | --- | --- | --- | --- | --- |
| PRT1106 (NTDECASQPCLHGGLCVDGENRYSCNCTGSGFTGTHCE; listed as Homo sapiens) | 25 | 25 | 12.5 | 25 | 50 | 12.5 | 25 | 50 | 25 | 12.5 | 50 |
| PRT1107 (LMPLCWSKPCHNNATCEDSVDNYTCHCWPGYTGAQCE; listed as Homo sapiens) | 12.5 | 50 | 12.5 | 50 | 25 | 12.5 | 50 | 12.5 | 50 | 12.5 | 25 |
| PRT1108 (DLNECNSNPCQSNGECVELSSEKQYGRITGLPSSFSYHEASGYVCICQPGFTGIHCE; listed as Homo sapiens) | 50 | 12.5 | 12.5 | 12.5 | 25 | 25 | 12.5 | 25 | 12.5 | 25 | 12.5 |
| PRT1109 (EPRGCATQPCHHGALCVPQGPDPTGFRCYCVPGFQGPRCE; listed as Homo sapiens) | 12.5 | 25 | 12.5 | 25 | 12.5 | 50 | 12.5 | 25 | 50 | 25 | 12.5 |
| PRT1110 (RREQCRPLPCVHGGSCVDLWTHFRCDCARPHRGPTCA; listed as Homo sapiens) | 25 | 50 | 25 | 12.5 | 50 | 12.5 | 50 | 12.5 | 25 | 50 | 25 |
| PRT1111 (SEDMCSPDPCFNGGTCLVTWNDFHCTCPANFTGPTCA; listed as Homo sapiens) | 12.5 | 50 | 12.5 | 50 | 25 | 25 | 12.5 | 25 | 50 | 25 | 12.5 |
| PRT1112 (GAPVCAPSPCLHDGACRDLFDAFACACGPGWEGPRCE; listed as Homo sapiens) | 50 | 25 | 12.5 | 25 | 50 | 12.5 | 25 | 12.5 | 25 | 12.5 | 25 |
| PRT1113 (HVDPCHSAPCARGRCHTHPDGRFECRCPPGFGGPRCR; listed as Homo sapiens) | 12.5 | 12.5 | 12.5 | 12.5 | 12.5 | 12.5 | 50 | 12.5 | 25 | 50 | 25 |
| PRT1114 (PSKECSLNVTCLDGSPCEGGSPAANCSCLEGLAGQRCQ; listed as Homo sapiens) | 25 | 12.5 | 25 | 50 | 25 | 25 | 12.5 | 25 | 50 | 25 | 12.5 |
